Where a name gives a salt, the structure may show the parent alone.
Legend:
[1] = molecular target: T1, bovine beta-2 adrenoceptor (Bos taurus, UniProt Q28044); assay: cAMP assay in CHO cells transfected with the bovine beta-2 adrenoceptor (DiscoveRx Hit Hunter cAMP II); assay type: cell-based; conditions: CHO cells transfected with bovine beta-2 adrenoceptor, 30 minutes incubation with compound
T1 construct: expressed in transfected cells; host or cells: CHO cells
Experimental: (§1) CHO cells transfected with the bovine or porcine beta-2 adrenceptors were maintained in culture in DMEM/HAMS F12+10% FBS+2 mM glutamine+500 μg/ml geneticin (for the porcine receptor the medium was supplement with 1.5 mM HEPES) at 37° C. with a 5% CO2 atmosphere.
(§2) Cells were plated into 96 well viewplates in medium and incubated overnight at 37° C. with a 5% CO2 atmosphere. The cells were pre-incubated with 0.5 mM IBMX in PBS for 30 minutes prior to incubation with increasing concentrations of experimental compound (5×10^−12 to 10^−5M) for 30 minutes at 37° C. with a 5% CO2 atmosphere. At the end of the incubation time the compound was removed and the cells assayed for cAMP using the DiscoveRx Hit Hunter cAMP II™ assay kit.
(§3) Duplicate samples were run for each experimental compound and the data generated was analysed using EC50 analysis software in Graphpad Prism.

[2] = molecular target: T2, porcine beta-2 adrenoceptor (Sus scrofa, UniProt Q28997); assay: cAMP assay in CHO cells transfected with the porcine beta-2 adrenoceptor (DiscoveRx Hit Hunter cAMP II); assay type: cell-based; conditions: CHO cells transfected with porcine beta-2 adrenoceptor, 30 minutes incubation with compound
T2 construct: expressed in transfected cells; host or cells: CHO cells
T2 sequence (Q28997 whole entry): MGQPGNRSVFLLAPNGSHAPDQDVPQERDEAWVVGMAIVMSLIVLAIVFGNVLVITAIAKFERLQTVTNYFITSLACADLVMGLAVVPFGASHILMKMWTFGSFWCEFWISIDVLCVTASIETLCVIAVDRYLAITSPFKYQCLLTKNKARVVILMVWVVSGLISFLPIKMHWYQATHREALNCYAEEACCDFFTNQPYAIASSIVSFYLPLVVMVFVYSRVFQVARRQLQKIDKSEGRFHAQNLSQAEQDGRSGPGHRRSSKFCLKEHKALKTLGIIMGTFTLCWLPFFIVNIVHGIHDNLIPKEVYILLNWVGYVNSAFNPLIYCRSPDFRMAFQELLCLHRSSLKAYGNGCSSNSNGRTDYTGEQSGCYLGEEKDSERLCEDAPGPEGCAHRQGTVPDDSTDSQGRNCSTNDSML
Experimental: as §1, §2, §3

T1 sequence (Q28044 whole entry): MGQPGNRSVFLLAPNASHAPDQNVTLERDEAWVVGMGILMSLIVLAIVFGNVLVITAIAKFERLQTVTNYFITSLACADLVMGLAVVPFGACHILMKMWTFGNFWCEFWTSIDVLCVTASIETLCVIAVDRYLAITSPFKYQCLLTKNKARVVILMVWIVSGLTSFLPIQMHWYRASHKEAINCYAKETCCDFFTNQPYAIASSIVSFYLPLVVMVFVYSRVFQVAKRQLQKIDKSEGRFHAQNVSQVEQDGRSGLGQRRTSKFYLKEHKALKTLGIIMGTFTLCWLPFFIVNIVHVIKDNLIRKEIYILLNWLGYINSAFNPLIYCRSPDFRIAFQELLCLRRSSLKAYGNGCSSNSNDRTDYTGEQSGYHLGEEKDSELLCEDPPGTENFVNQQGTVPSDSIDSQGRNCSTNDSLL

Row | Compound | EC50 [1] [nM] | EC50 [2] [nM]
1 | C[C@@H](CCc1c[nH]c2ccccc12)N[C@@H]1CCn2c(=O)[nH]c3cccc(c32)[C@H]1O (racemic) [Example 4c, 7-Hydroxy-6-{[3-(1H-indol-3-yl)-1-methylpropyl]amino}-4,5,6,7-tetrahydroimidazo[4,5,1-jk][1]benzazepin-2(1H)-one] | 103 | 143
2 | CC(CC(C)(C)c1c[nH]c2ccccc12)N[C@@H]1CCn2c(=O)[nH]c3cccc(c32)[C@H]1O (mixture of isomers) [Example 8, 7-Hydroxy-6-{[3-(1H-indol-3-yl)-1,3-dimethylbutyl]amino}-4,5,6,7-tetrahydroimidazo[4,5,1-jk][1]benzazepin-2(1H)-one] | 114 | 6.1
3 | CC(CCc1c[nH]c2ccc(OCc3ccccc3)cc12)N[C@@H]1CCn2c(=O)[nH]c3cccc(c32)[C@H]1O (mixture of isomers) [Example 17, 6-({3-[5-(Benzyloxy)-1H-indol-3-yl]-1-methylpropyl}amino)-7-hydroxy-4,5,6,7-tetrahydroimidazo[4,5,1-jk][1]benzazepin-2(1H)-one] | 25 | 33
4 | CC(CCc1cn(Cc2ccccc2)c2ccccc12)N[C@@H]1CCn2c(=O)[nH]c3cccc(c32)[C@H]1O (mixture of isomers) [Example 18, 6-{[3-(1-Benzyl-1H-indol-3-yl)-1-methylpropyl]amino}-7-hydroxy-4,5,6,7-tetrahydroimidazo[4,5,1-jk][1]benzazepin-2(1H)-one] | 218 | 98
5 | CC(CC(C)(C)c1cn(C)c2ccccc12)N[C@@H]1CCn2c(=O)[nH]c3cccc(c32)[C@H]1O (mixture of isomers) [Example 20, 6-{[1,3-Dimethyl-3-(1-methyl-1H-indol-3-yl)butyl]amino}-7-hydroxy-4,5,6,7-tetrahydroimidazo[4,5,1-jk][1]benzazepin-2(1H)-one] | 157 | 36
6 | COc1ccc2[nH]cc(CCC(C)N[C@@H]3CCn4c(=O)[nH]c5cccc(c54)[C@H]3O)c2c1 (mixture of isomers) [Example 22, 7-hydroxy-6-{[3-(5-methoxy-1H-indol-3-yl)-1-methylpropyl]amino}-4,5,6,7-tetrahydroimidazo[4,5,1-jk][1]benzazepin-2(1H)-one] | 50 | 53
7 | CC(CCc1cnc(Cl)s1)N[C@@H]1CCn2c(=O)[nH]c3cccc(c32)[C@H]1O (mixture of isomers) [Example 25, 6-{[3-(2-Chloro-1,3-thiazol-5-yl)-1-methylpropyl]amino}-7-hydroxy-4,5,6,7-tetrahydroimidazo[4,5,1-jk][1]benzazepin-2(1H)-one] | 2.9 | 4.2
8 | CC(CCc1cscn1)N[C@@H]1CCn2c(=O)[nH]c3cccc(c32)[C@H]1O (mixture of isomers) [Example 26, 7-Hydroxy-6-{[1-methyl-3-(1,3-thiazol-4-yl)propyl]amino}-4,5,6,7-tetrahydroimidazo[4,5,1-jk][1]benzazepin-2(1H)-one] | 345 | 742
9 | CC(CCc1ccncc1)N[C@@H]1CCn2c(=O)[nH]c3cccc(c32)[C@H]1O (mixture of isomers) [Example 27, 7-Hydroxy-6-[(1-methyl-3-pyridin-4-ylpropyl)amino]-4,5,6,7-tetrahydroimidazo[4,5,1-jk][1]benzazepin-2(1H)-one] | 77 | 53
10 | CC(CCc1c[nH]c2ccc(C#N)cc12)N[C@@H]1CCn2c(=O)[nH]c3cccc(c32)[C@H]1O (mixture of isomers) [Example 29, 3-(3-{[7-Hydroxy-2-oxo-1,2,4,5,6,7-hexahydroimidazo[4,5,1-jk][1]benzazepin-6-yl]amino}butyl)-1H-indole-5-carbonitrile] | 83 | 127
11 | CC(CCn1ccnc1)N[C@@H]1CCn2c(=O)[nH]c3cccc(c32)[C@H]1O (mixture of isomers) [Example 30, 7-Hydroxy-6-{[3-(1H-imidazol-1-yl)-1-methylpropyl]amino}-4,5,6,7-tetrahydroimidazo[4,5,1-jk][1]benzazepin-2(1H)-one] | 48 | 3.8
12 | Cc1ccc2[nH]cc(CCC(C)N[C@@H]3CCn4c(=O)[nH]c5cccc(c54)[C@H]3O)c2c1 (mixture of isomers) [Example 33, 7-Hydroxy-6-{[1-methyl-3-(5-methyl-1H-indol-3-yl)propyl]amino}-4,5,6,7-tetrahydroimidazo[4,5,1-jk][1]benzazepin-2(1H)-one] | 74 | 24
13 | CC(CCc1cc(Cl)cc2cc[nH]c12)N[C@@H]1CCn2c(=O)[nH]c3cccc(c32)[C@H]1O (mixture of isomers) [Example 35, 6-{[3-(5-Chloro-1H-indol-7-yl)-1-methylpropyl]amino}-7-hydroxy-4,5,6,7-tetrahydroimidazo[4,5,1-jk][1]benzazepin-2(1H)-one] | 0.8 | 2
14 | CC(CCc1ncccc1O)N[C@@H]1CCn2c(=O)[nH]c3cccc(c32)[C@H]1O (mixture of isomers) [Example 39, 7-Hydroxy-6-{[3-(3-hydroxypyridin-2-yl)-1-methylpropyl]amino}-4,5,6,7-tetrahydroimidazo[4,5,1-jk][1]benzazepin-2(1H)-one] | 330 | 159
15 | CCOC(=O)c1[nH]c2cc(Cl)ccc2c1CCN[C@@H]1CCn2c(=O)[nH]c3cccc(c32)[C@H]1O (racemic) [Example 41, Ethyl-6-chloro-3-(2-{[7-hydroxy-2-oxo-1,2,4,5,6,7-hexahydroimidazo[4,5,1-jk][1]benzazepin-6-yl]amino}ethyl)-1H-indole-2-carboxylate] | 546 | 26

Further lines, results first:

Row | EC50 [1] [nM] | EC50 [2] [nM] | Compound
16 | 1.1 | 2.5 | CC(CCc1c[nH]c2ccc(F)cc12)N[C@@H]1CCn2c(=O)[nH]c3cccc(c32)[C@H]1O (mixture of isomers) [Example 5b, Hydrochloride salt of 6-{[3-[5-Fluoro-1H-indol-3-yl]-1-methylpropyl]amino}-7-hydroxy-4,5,6,7-tetrahydroimidazo[4,5,1-jk][1]benzazepin-2(1)-one]
17 | 4.6 | 5.5 | CC(CCc1cccc(=O)[nH]1)N[C@@H]1CCn2c(=O)[nH]c3cccc(c32)[C@H]1O (mixture of isomers) [Example 7a, 7-Hydroxy-6-{[1-methyl-3-(6-oxo-1,6-dihydropyridin-2-yl)propyl]amino}-4,5,6,7-tetrahydroimidazo[4,5,1-jk][1]benzazepin-2(1H)-one]
18 | 8 | 5.8 | CC(CCc1cn(C)c2ccccc12)N[C@@H]1CCn2c(=O)[nH]c3cccc(c32)[C@H]1O (mixture of isomers) [Example 14b, 7-Hydroxy-6-{[1-methyl-3-(1-methyl-1H-indol-3-yl)propyl]amino}-4,5,6,7-tetrahydroimidazo[4,5,1-jk][1]benzazepin-2(1H)-one]
19 | 5.5 | 4.2 | CC(CCc1cn(C)c2ccccc12)N[C@@H]1CCn2c(=O)[nH]c3cccc(c32)[C@H]1O (mixture of isomers) [Example 14c, 7-Hydroxy-6-{[1-methyl-3-(1-methyl-1H-indol-3-yl)propyl]amino}-4,5,6,7-tetrahydroimidazo[4,5,1-jk][1]benzazepin-2(1H)-one]
20 | 92 | 79 | CC(CCc1nccs1)N[C@@H]1CCn2c(=O)[nH]c3cccc(c32)[C@H]1O (mixture of isomers) [Example 24b, 7-Hydroxy-6-{[1-methyl-3-(1,3-thiazol-2-yl)propyl]amino}-4,5,6,7-tetrahydroimidazo[4,5,1-jk][1]benzazepin-2(1H)-one]
21 | 129 | 104 | Cc1ncc(CCC(C)N[C@@H]2CCn3c(=O)[nH]c4cccc(c43)[C@H]2O)s1 (mixture of isomers) [Example 28a, 7-Hydroxy-6-{[1-methyl-3-(2-methyl-1,3-thiazol-5-yl)propyl]amino}-4,5,6,7-tetrahydroimidazo[4,5,1-jk][1]benzazepin-2(1H)-one]
22 | 366 | 19 | CC(CCc1c[nH]c2ccncc12)N[C@@H]1CCn2c(=O)[nH]c3cccc(c32)[C@H]1O (mixture of isomers) [Example 31c, 7-Hydroxy-6-{[1-methyl-3-(1H-pyrrolo[3,2-c]pyridin-3-yl)-propyl]amino}-4,5,6,7-tetrahydroimidazo[4,5,1-jk][1]benzazepin-2(1H)-one]
23 | 18 | 8.7 | CC(CCc1c[nH]c2cnccc12)N[C@@H]1CCn2c(=O)[nH]c3cccc(c32)[C@H]1O (mixture of isomers) [Example 32c, 7-Hydroxy-6-{[1-methyl-3-(1H-pyrrolo[2,3-c]pyridin-3-yl)propyl]amino}-4,5,6,7-tetrahydroimidazo[4,5,1-jk][1]benzazepin-2(1H)-one]
24 | 23 | 45 | Cc1ncsc1CCC(C)N[C@@H]1CCn2c(=O)[nH]c3cccc(c32)[C@H]1O (mixture of isomers) [Example 34a, 7-Hydroxy-6-{[1-methyl-3-(4-methyl-1,3-thiazol-5-yl)propyl]amino}-4,5,6,7-tetrahydroimidazo[4,5,1-jk][1]benzazepin-2(1H)-one]
25 | 0.6 | 1.1 | CC(CCc1cccc2cc[nH]c12)N[C@@H]1CCn2c(=O)[nH]c3cccc(c32)[C@H]1O (mixture of isomers) [Example 38d, 7-Hydroxy-6-{[3-(1H-indol-7-yl)-1-methylpropyl]amino}-4,5,6,7-tetrahydroimidazo[4,5,1-jk][1]benzazepin-2(1H)-one]
26 | 459 | 20 | O=c1[nH]c2cccc3c2n1CC[C@@H](NCCc1c[nH]c2ccccc12)[C@@H]3O (racemic) [Example 40a]
27 | 550 | 28 | O=c1[nH]c2cccc3c2n1CC[C@@H](NCCc1c[nH]c2ccccc12)[C@@H]3O (racemic) [Example 40b]

Source: patent publication US20080267942A1, “BENZAZEPIN-2(1H)-ONE DERIVATIVES” (Pfizer Limited, priority 2006, published 2008)
